Columns and labels:
Experiment in all cases: radiometric filter-binding kinase assay, Kinase HotSpot
Conditions in all cases: compound 0.5 µM; ATP 10 µM
[1] = target: KIT (human) (UniProt P10721)
[2] = target: MATK (human) (UniProt P42679)
[3] = target: PRKCG (human) (UniProt P05129)
[4] = target: IKBKB (human) (UniProt O14920)
[5] = target: CDK1 CCNA2 (human) (UniProt P06493+P20248)
[6] = target: RPS6KA3 KD1 KD2 (human) (UniProt P51812)
[7] = target: RET (human) (UniProt P07949)
[8] = target: MYLK (human) (UniProt Q15746)
[9] = target: ADRBK2 (human) (UniProt P35626)
ADRBK2 (human), sequence (P35626 whole entry, looked up): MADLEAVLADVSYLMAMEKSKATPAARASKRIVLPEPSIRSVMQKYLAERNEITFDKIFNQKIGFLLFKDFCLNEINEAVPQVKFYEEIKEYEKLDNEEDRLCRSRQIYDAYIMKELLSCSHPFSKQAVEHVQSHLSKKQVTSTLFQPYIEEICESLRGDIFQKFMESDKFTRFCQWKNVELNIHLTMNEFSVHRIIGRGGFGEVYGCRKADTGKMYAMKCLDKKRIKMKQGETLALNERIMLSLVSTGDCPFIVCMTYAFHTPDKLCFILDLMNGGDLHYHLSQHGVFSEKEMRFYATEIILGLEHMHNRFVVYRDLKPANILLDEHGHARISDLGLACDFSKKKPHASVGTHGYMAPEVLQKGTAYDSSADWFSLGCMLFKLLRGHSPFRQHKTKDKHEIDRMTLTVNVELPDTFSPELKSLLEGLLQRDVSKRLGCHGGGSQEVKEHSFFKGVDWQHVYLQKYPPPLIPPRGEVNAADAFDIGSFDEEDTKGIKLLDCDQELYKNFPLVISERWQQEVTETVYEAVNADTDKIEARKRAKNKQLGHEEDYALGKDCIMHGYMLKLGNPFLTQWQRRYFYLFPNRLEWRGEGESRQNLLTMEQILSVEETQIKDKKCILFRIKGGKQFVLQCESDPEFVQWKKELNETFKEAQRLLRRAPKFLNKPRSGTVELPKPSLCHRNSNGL

[10] = target: MST1R (human) (UniProt Q04912)
[11] = target: ROCK2 (human) (UniProt O75116)
[12] = target: MAPK12 (human) (UniProt P53778)
[13] = target: AKT1 (human) (UniProt P31749)
AKT1 (human), sequence (P31749 whole entry, looked up): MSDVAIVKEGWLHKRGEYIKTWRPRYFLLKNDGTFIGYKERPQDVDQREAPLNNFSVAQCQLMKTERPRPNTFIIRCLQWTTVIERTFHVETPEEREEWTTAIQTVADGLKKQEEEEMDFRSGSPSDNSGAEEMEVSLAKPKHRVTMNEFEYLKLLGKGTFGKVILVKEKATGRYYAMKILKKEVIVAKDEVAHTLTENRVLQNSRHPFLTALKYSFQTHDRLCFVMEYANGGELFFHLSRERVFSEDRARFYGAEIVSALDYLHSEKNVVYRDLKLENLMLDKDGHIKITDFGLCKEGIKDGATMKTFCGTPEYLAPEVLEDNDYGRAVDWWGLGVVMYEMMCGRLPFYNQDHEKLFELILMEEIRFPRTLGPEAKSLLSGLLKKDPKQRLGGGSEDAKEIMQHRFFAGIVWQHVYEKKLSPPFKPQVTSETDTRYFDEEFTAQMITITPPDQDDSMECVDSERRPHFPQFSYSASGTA

[14] = target: BRSK2 (human) (UniProt Q8IWQ3)
[15] = target: EPHB3 (human) (UniProt P54753)
EPHB3 (human), sequence (P54753 whole entry, looked up): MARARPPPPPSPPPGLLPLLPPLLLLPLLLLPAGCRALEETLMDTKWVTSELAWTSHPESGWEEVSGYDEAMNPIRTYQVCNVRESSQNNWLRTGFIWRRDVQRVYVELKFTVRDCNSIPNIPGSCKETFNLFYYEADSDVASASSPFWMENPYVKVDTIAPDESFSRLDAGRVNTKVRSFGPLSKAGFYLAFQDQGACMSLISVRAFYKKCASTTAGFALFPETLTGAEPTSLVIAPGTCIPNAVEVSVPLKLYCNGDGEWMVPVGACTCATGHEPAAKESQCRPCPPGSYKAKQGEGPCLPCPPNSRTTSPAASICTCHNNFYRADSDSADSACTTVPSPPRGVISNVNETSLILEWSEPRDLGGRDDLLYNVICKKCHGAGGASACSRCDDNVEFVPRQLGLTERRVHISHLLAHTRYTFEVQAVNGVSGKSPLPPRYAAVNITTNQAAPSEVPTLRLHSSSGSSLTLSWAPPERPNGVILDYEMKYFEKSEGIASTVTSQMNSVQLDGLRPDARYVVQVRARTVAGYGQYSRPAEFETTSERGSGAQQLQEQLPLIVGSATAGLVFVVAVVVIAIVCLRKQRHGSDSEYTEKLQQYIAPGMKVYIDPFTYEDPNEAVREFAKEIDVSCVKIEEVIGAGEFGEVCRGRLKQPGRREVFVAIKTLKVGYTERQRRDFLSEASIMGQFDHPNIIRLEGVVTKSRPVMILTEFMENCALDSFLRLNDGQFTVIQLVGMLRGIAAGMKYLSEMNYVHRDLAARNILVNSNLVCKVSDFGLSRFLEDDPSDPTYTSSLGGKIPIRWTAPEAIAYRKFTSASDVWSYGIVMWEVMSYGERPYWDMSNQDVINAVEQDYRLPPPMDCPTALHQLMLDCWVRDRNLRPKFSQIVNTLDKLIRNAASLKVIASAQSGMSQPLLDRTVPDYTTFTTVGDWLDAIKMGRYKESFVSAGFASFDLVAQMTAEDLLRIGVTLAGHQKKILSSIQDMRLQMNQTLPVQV

[16] = target: MAP3K7 TAB1 (human) (UniProt O43318+Q15750)
[17] = test system: FLT4 (human), P35916 [Q890H]
[18] = target: EPHB4 (human) (UniProt P54760)
[19] = target: INSR (human) (UniProt P06213)
INSR (human), sequence (P06213 whole entry, looked up): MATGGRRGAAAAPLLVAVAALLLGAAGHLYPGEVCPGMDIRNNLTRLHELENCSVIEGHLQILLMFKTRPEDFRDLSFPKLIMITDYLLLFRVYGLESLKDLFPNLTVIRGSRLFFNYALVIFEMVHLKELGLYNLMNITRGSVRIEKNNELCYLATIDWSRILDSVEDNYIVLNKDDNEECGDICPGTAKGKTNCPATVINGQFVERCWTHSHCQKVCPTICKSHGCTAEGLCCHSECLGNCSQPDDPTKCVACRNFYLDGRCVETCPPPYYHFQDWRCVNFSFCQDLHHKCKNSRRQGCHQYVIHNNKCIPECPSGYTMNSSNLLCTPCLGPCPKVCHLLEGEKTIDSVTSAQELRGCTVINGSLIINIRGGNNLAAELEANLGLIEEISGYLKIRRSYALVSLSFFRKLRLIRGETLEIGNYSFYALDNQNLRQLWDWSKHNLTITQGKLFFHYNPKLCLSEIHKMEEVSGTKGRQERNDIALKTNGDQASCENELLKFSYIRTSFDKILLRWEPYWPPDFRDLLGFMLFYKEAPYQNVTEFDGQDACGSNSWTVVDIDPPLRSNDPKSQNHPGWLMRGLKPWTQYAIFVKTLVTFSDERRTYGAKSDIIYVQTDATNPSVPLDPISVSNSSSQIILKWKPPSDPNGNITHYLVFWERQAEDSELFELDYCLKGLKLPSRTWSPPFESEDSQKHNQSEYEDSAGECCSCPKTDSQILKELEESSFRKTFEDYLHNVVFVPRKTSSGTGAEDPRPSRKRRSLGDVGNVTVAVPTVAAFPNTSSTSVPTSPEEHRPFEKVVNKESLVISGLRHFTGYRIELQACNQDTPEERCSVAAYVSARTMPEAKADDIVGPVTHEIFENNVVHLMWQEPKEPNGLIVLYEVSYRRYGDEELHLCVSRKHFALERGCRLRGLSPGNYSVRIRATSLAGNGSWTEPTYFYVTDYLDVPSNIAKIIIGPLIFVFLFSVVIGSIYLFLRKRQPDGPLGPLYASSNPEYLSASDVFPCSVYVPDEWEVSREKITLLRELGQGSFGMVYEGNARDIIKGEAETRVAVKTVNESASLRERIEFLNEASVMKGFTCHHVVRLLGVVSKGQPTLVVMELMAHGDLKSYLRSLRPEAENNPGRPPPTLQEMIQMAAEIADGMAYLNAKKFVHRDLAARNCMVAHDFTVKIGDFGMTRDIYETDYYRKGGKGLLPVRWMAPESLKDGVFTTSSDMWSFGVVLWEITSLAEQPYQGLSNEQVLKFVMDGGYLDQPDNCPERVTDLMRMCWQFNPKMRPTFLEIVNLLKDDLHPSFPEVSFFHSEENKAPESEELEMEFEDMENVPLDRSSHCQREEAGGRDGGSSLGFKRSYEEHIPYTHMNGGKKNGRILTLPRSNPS

[20] = target: DAPK1 (human) (UniProt P53355)
[21] = target: RPS6KA6 KD1 KD2 (human) (UniProt Q9UK32)
[22] = target: BLK (human) (UniProt P51451)
[23] = target: DAPK3 (human) (UniProt O43293)
DAPK3 (human), sequence (O43293 whole entry, looked up): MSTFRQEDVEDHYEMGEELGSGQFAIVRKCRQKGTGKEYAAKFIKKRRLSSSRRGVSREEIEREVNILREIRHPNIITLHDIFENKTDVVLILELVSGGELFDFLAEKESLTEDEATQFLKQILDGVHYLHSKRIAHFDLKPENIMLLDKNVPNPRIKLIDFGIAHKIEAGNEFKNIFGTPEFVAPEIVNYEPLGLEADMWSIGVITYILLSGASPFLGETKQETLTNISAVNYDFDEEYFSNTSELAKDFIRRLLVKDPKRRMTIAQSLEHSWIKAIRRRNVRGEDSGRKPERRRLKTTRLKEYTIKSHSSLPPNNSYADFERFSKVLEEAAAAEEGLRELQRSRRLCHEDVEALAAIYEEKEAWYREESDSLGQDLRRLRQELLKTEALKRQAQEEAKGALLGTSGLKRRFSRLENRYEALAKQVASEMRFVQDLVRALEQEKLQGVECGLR

[24] = target: EPHA2 (human) (UniProt P29317)
[25] = target: NEK1 (human) (UniProt Q96PY6)
[26] = target: CAMK2D (human) (UniProt Q13557)
[27] = target: NEK4 (human) (UniProt P51957)
[28] = target: STK39 (human) (UniProt Q9UEW8)
[29] = target: TEC (human) (UniProt P42680)
TEC (human), sequence (P42680 whole entry, looked up): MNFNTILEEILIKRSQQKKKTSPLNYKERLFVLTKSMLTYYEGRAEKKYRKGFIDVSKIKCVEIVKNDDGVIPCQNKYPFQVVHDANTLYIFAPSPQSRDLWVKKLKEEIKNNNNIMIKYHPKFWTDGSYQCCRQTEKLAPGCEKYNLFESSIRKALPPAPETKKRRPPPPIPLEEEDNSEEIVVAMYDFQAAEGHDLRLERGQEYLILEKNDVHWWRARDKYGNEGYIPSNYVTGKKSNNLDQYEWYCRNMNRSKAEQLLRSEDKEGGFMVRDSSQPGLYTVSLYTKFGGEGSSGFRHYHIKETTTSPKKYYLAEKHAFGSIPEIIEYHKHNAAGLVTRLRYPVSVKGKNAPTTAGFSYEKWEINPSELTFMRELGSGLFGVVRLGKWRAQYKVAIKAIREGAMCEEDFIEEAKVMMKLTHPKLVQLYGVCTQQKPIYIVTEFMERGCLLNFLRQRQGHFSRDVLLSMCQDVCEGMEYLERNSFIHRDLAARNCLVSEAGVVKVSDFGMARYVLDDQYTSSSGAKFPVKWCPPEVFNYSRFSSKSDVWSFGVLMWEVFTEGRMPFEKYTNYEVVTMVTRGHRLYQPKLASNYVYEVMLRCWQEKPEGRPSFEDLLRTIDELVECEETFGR

[30] = target: ULK1 (human) (UniProt O75385)
[31] = target: FER (human) (UniProt P16591)
[32] = target: CAMK2G (human) (UniProt Q13555)
[33] = target: EPHA4 (human) (UniProt P54764)
[34] = target: FGFR4 (human) (UniProt P22455)
[35] = target: PAK1 (human) (UniProt Q13153)
[36] = target: HIPK3 (human) (UniProt Q9H422)
[37] = target: PIM2 (human) (UniProt Q9P1W9)
PIM2 (human), sequence (Q9P1W9 whole entry, looked up): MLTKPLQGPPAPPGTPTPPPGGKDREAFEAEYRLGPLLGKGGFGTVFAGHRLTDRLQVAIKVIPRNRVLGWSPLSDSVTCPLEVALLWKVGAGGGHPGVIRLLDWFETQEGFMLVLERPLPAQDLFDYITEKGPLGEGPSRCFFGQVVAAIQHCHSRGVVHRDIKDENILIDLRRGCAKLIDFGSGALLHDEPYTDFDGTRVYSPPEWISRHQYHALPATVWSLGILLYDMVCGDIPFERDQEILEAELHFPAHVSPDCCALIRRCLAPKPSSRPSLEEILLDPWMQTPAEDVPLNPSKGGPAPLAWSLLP

[38] = target: SLK (human) (UniProt Q9H2G2)
[39] = target: CDK2 CCNE1 (human) (UniProt P24941+P24864)
[40] = target: NTRK1 (human) (UniProt P04629)
[41] = target: TEK (human) (UniProt Q02763)
[42] = target: ACVR1B (human) (UniProt P36896)

O=C(c1cc2cc(O)ccc2[nH]1)c1cc2cc(O)ccc2[nH]1
residual activity [1]: 45.6% | residual activity [2]: 93.3% | residual activity [3]: 85.1% | residual activity [4]: 91.3% | residual activity [5]: 88.2% | residual activity [6]: 37.7% | residual activity [7]: 8.98% | residual activity [8]: 91.4% | residual activity [9]: 102% | residual activity [10]: 90.4% | residual activity [11]: 92.9% | residual activity [12]: 97.9% | residual activity [13]: 98.2% | residual activity [14]: 44.3% | residual activity [15]: 92.3% | residual activity [16]: 79.5% | residual activity [17]: 67.1% | residual activity [18]: 89.3% | residual activity [19]: 93.8% | residual activity [20]: 101% | residual activity [21]: 26.7% | residual activity [22]: 49.7% | residual activity [23]: 104% | residual activity [24]: 101% | residual activity [25]: 93.4% | residual activity [26]: 63.7% | residual activity [27]: 87.6% | residual activity [28]: 97.6% | residual activity [29]: 105% | residual activity [30]: 60.1% | residual activity [31]: 86.6% | residual activity [32]: 89.5% | residual activity [33]: 109% | residual activity [34]: 92.8% | residual activity [35]: 94.6% | residual activity [36]: 97.3% | residual activity [37]: 108% | residual activity [38]: 78.6% | residual activity [39]: 65% | residual activity [40]: 57.2% | residual activity [41]: 104% | residual activity [42]: 98.9%

O=C1NC(=O)c2c1c1c3ccccc3[nH]c1n1cncc21
residual activity [1]: 38% | residual activity [2]: 99.8% | residual activity [3]: 117% | residual activity [4]: 95.9% | residual activity [5]: 94.8% | residual activity [6]: 47.4% | residual activity [7]: 42% | residual activity [8]: 15.5% | residual activity [9]: 109% | residual activity [10]: 102% | residual activity [11]: 93.2% | residual activity [12]: 85.9% | residual activity [13]: 102% | residual activity [14]: 29.7% | residual activity [15]: 79.7% | residual activity [16]: 63.4% | residual activity [17]: 56.6% | residual activity [18]: 105% | residual activity [19]: 17.9% | residual activity [20]: 26.6% | residual activity [21]: 33.4% | residual activity [22]: 73.9% | residual activity [23]: 29.6% | residual activity [24]: 102% | residual activity [25]: 75.2% | residual activity [26]: 36.7% | residual activity [27]: 88.4% | residual activity [28]: 104% | residual activity [29]: 96.7% | residual activity [30]: 97.2% | residual activity [31]: 47.9% | residual activity [32]: 52.3% | residual activity [33]: 98.6% | residual activity [34]: 78.6% | residual activity [35]: 93.9% | residual activity [36]: 66.9% | residual activity [37]: 34.4% | residual activity [38]: 87.8% | residual activity [39]: 66.5% | residual activity [40]: 89.8% | residual activity [41]: 78.9% | residual activity [42]: 103%

Cc1nc(-c2ccccc2)c(-c2ccncc2)o1
residual activity [1]: 93.7% | residual activity [2]: 90.3% | residual activity [3]: 101% | residual activity [4]: 105% | residual activity [5]: 94.7% | residual activity [6]: 103% | residual activity [7]: 97.5% | residual activity [8]: 101% | residual activity [9]: 101% | residual activity [10]: 95.9% | residual activity [11]: 97.6% | residual activity [12]: 105% | residual activity [13]: 102% | residual activity [14]: 95% | residual activity [15]: 99.2% | residual activity [16]: 93.6% | residual activity [17]: 108% | residual activity [18]: 84.8% | residual activity [19]: 85.6% | residual activity [20]: 124% | residual activity [21]: 115% | residual activity [22]: 95.4% | residual activity [23]: 101% | residual activity [24]: 104% | residual activity [25]: 103% | residual activity [26]: 94.2% | residual activity [27]: 100% | residual activity [28]: 97.1% | residual activity [29]: 127% | residual activity [30]: 84.6% | residual activity [31]: 84.9% | residual activity [32]: 91.7% | residual activity [33]: 112% | residual activity [34]: 76.5% | residual activity [35]: 98.7% | residual activity [36]: 107% | residual activity [37]: 110% | residual activity [38]: 101% | residual activity [39]: 93.4% | residual activity [40]: 94.3% | residual activity [41]: 101% | residual activity [42]: 99.3%

CCCCc1c(-c2ccc(OC)cc2)[nH]c2nccnc12
residual activity [1]: 82.9% | residual activity [2]: 101% | residual activity [3]: 94.4% | residual activity [4]: 102% | residual activity [5]: 65.4% | residual activity [6]: 88% | residual activity [7]: 56.3% | residual activity [8]: 96.8% | residual activity [9]: 95.6% | residual activity [10]: 104% | residual activity [11]: 97.2% | residual activity [12]: 102% | residual activity [13]: 113% | residual activity [14]: 90.8% | residual activity [15]: 99.8% | residual activity [16]: 90.6% | residual activity [17]: 81.1% | residual activity [18]: 89.5% | residual activity [19]: 97.6% | residual activity [20]: 90.6% | residual activity [21]: 78.2% | residual activity [22]: 96.7% | residual activity [23]: 102% | residual activity [24]: 87.9% | residual activity [25]: 86.9% | residual activity [26]: 93.3% | residual activity [27]: 81.3% | residual activity [28]: 77.8% | residual activity [29]: 134% | residual activity [30]: 87.9% | residual activity [31]: 59.8% | residual activity [32]: 107% | residual activity [33]: 85.5% | residual activity [34]: 92.5% | residual activity [35]: 83.7% | residual activity [36]: 99.9% | residual activity [37]: 115% | residual activity [38]: 76.2% | residual activity [39]: 42.1% | residual activity [40]: 109% | residual activity [41]: 96.3% | residual activity [42]: 112%

From the kinase profiling compilation of Christmann-Franck et al. (2016)
